The text below walks through data of publication PMC7150648 (ACS infectious diseases, 2020).

SMILES strings stand for the structures. Entries after “also recorded” stand apart in the source; their conditions may differ. Read-outs that look alike come from different tables or passages of the source.

Data set [1] addresses T1, LasR (Pseudomonas aeruginosa, UniProt P25084). Nature of the data set: LasR agonism, P. aeruginosa PAO-JP2 GFP reporter, compound alone. The class given is cell-based. Particulars: result in words.
The target of another data set is LasR S129A mutant (Pseudomonas aeruginosa, UniProt P25084, S129A). Nature of the data set: E. coli LasR mutant reporter, S129A. The class given is cell-based. The settings on record: result in words.
In data set [2] the target is T1, LasR. Kind of data set: LasR antagonism, P. aeruginosa PAO-JP2 GFP reporter, in competition with OdDHL. The class given is cell-based.
The next data set relates to MexAB-OprM efflux pump. The settings on record: P. aeruginosa; ref [16]; cited from earlier work.
The next data set addresses LasR Y56F mutant (Pseudomonas aeruginosa, UniProt P25084, Y56F). Nature of the data set: E. coli LasR mutant reporter, Y56F. The class given is cell-based. Particulars: result in words.
The next data set concerns the target RhlR (Pseudomonas aeruginosa, UniProt P54292). Kind of data set: E. coli RhlR β-galactosidase reporter. The settings on record: result in words. The data set is classed as cell-based.
Data set [3] deals with T1, LasR. Nature of the data set: E. coli LasR β-galactosidase reporter, wild-type LasR. The class given is cell-based. The settings on record: result in words.
The target of the next data set is QscR (Pseudomonas aeruginosa, UniProt G3XD77). The class given is cell-based. Particulars: E. coli reporter; result in words.
The target of another data set is LasR W60F mutant (Pseudomonas aeruginosa, UniProt P25084, W60F). Nature of the data set: E. coli LasR mutant reporter, W60F. The data set is classed as cell-based. The settings on record: 100 μM vs OdDHL at its EC50; result in words.
Data set [4] addresses T1, LasR. The settings on record: 50 μM compound; 16 h protein production.
The target in data set [5] is T1, LasR. The settings on record: P. aeruginosa LasR reporter; ref [30]; cited from earlier work.
The target of data set [6] is T1, LasR. The settings on record: result in words; ref Wu et al., FASEB J. 2016; cited from earlier work.

As to `CCCCCCCCCNC(=O)CC(=O)c1ccccc1` [V-06–018, N-nonyl-3-oxo-3-phenylpropanamide], on LasR [1], the “LasR activation in dose-response agonism curves” value is given as “did not activate LasR”. Also, on LasR S129A mutant (100 μM vs OdDHL at its EC50), the “LasR S129A antagonism compared with wild-type LasR” value is “significantly lesser extent than wild-type LasR”. The “LasR S129A agonism compared with wild-type LasR” value at LasR S129A mutant (100 μM) is reported as “significantly more than wild-type LasR”. The IC50 at LasR [2] came out at 3.9 µM; at LasR [2] (PAO-JP2, vs 150 nM OdDHL (approximate EC50)) it was 2.3 µM. In addition, at LasR [2] (PAO-JP2, compound 10 μM vs 150 nM OdDHL), the “LasR antagonism, primary screen” value is on record as ~ 90%. Also, on LasR [2] (PAO-JP2, vs 150 nM OdDHL, best-fit bottom of dose-response curve), the “Maximum Inhibition” value is 89%. In the data set with MexAB-OprM efflux pump, the “active efflux by MexAB-OprM” value is “not actively effluxed”. For the same molecule, at LasR Y56F mutant (100 μM vs OdDHL at its EC50), the “LasR Y56F antagonism compared with wild-type LasR” value was “significantly lesser extent than wild-type LasR”. Also, on LasR Y56F mutant (100 μM), the “LasR Y56F agonism compared with wild-type LasR” value was “significantly greater extent than wild-type LasR”. Also, the “activity in RhlR (antagonist or agonist)” value on RhlR is “no activity (as either an antagonist or agonist)”. Also, the “activity in LasR (antagonist in competition, agonist alone)” value at LasR [3] is “only an antagonist of LasR; also recorded: does not agonize wild-type LasR”. Also, on QscR, the “activity in QscR (antagonist or agonist)” value was “only a very weak antagonist; also recorded: only a weak QscR antagonist”. For the same molecule, the “LasR W60F antagonism compared with wild-type LasR” value at LasR W60F mutant was “significantly lesser extent than wild-type LasR”. In addition, the “soluble (S) LasR band intensity relative to whole cell (WC) band” value on LasR [4] is on record as ~ 7%.

In the case of `O=C(Cc1ccc(Br)cc1)N[C@H]1CCOC1=O` [4-bromo PHL], at LasR [5], the half-maximal inhibitory concentration (IC50) was 116 µM.

With `CCCCC[C@H](O)/C=C/C=C\C=C\C=C\[C@@H](O)[C@@H](O)CCCC(=O)O` [Lipoxin A], the half-maximal inhibitory concentration (IC50) result on LasR [6] was “nanomolar IC50”.
